These results are taken from patent publication US20250186391A1, “ORAL COMPLEMENT FACTOR D INHIBITORS” (BioCryst Pharmaceuticals, Inc., priority 2019, published 2025).

Where only a bound is given, the exact number is not on record here.

Factor D, sequence (P00746 26-253): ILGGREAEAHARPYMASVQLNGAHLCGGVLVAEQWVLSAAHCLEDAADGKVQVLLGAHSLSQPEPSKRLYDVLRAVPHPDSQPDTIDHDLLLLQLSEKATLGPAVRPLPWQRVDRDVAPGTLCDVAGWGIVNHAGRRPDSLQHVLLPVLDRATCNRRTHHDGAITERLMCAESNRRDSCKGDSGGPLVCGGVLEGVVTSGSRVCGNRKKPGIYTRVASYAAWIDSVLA

The target of this assay is Factor D (Homo sapiens (Human), UniProt P00746). The experiment in a line: Factor D esterolytic assay. In kind it is biochemical. The following applies: Z-Lys-SBzl substrate, 100 mM HEPES, 500 mM NaCl, pH 7.5, 10% DMSO; tested a minimum of three times; read-out: Measured Ki (IC50) Value for Compounds: IC50. A digest of the protocol:
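Buffer was 100 mM HEPES, 500 mM NaCl, pH 7.5 with 10% DMSO. Compound and Factor D were combined, then Z-Lys-SBzl (1.29 mM) was added either at once or following room-temperature incubation. Rates came from DTNB colour at 405 nm minus 690 nm over 600 s, with percent inhibition giving IC50 over at least three tests.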
A word on the IC50: it is the midpoint of a concentration-inhibition curve. As for `CC(O)c1oc2ccc(-c3cccc(CN)c3)cc2c1COc1ccccc1CC(=O)O` (stereo not drawn) [Compound 125d, 2-(2-((5-(3-(aminomethyl)phenyl)-2-(1-hydroxyethyl)benzofuran-3-yl)methoxy)phenyl)acetic acid], the IC50 was below 1000 nM. `CC(C)(C)OC(=O)Cc1ccccc1OCc1cc2cc(COc3ccccc3CC(=O)O)cc(-c3cccc(CN)c3)c2o1` [Compound 24a, 2-(2-((7-(3-(aminomethyl)phenyl)-2-((2-(2-(tert-butoxy)-2-oxoethyl)phenoxy)methyl)benzofuran-5-yl)methoxy)phenyl)acetic acid]: the IC50 is below 1000 nM. As for `NCc1cccc(-c2cc(NCC3CCOC3)c3occ(COc4ccccc4CC(=O)O)c3c2)c1` (stereo not drawn) [Compound 147d, 2-(2-((5-(3-(aminomethyl)phenyl)-7-(((tetrahydrofuran-3-yl)methyl)amino)benzofuran-3-yl)methoxy)phenyl)acetic acid], the figure is below 1000 nM; as for `Cn1nc(Nc2ccccc2CC(=O)O)c2cc(-c3cccc(CN)c3)ccc21` [Compound 77d, 2-(2-((5-(3-(aminomethyl)phenyl)-1-methyl-1H-indazol-3-yl)amino)phenyl)acetic acid], above 10000 nM; as for `NCc1cccc(-c2cc(C3CC3)c3occ(COc4ccccc4CC(=O)O)c3c2)c1` [Compound 120c, 2-(2-((5-(3-(aminomethyl)phenyl)-7-cyclopropylbenzofuran-3-yl)methoxy)phenyl)acetic acid], below 1000 nM. As for `Cc1ccc(CC(=O)O)c(OCc2c(C)oc3ccc(-c4cccc(CN)c4)cc23)c1` [Compound 131c, 2-(2-((5-(3-(aminomethyl)phenyl)-2-methylbenzofuran-3-yl)methoxy)-4-methylphenyl)acetic acid], the figure is below 1000 nM; as for `NCc1cccc(-c2ccc3oc(C(N)=O)c(COc4ccccc4CC(=O)O)c3c2)c1` [Compound 103c, 2-(2-((5-(3-(aminomethyl)phenyl)-2-carbamoylbenzofuran-3-yl)methoxy)phenyl)acetic acid], below 1000 nM; as for `NCc1cccc(-c2ccc3occ(COc4ccccc4CC(=O)O)c3c2)c1F` [Compound 42b, 2-(2-((5-(3-(aminomethyl)-2-fluorophenyl)benzofuran-3-yl)methoxy)phenyl)acetic acid], below 1000 nM.

As for `CC(C)c1oc2ccc(-c3cccc(CN)c3)cc2c1COc1ccccc1CC(=O)O` [Compound 142e, 2-(2-((5-(3-(aminomethyl)phenyl)-2-isopropylbenzofuran-3-yl)methoxy)phenyl)acetic acid], the IC50 is below 1000 nM. The result for `NCc1cccc(-c2cc(NCC3CCCC3)c3occ(COc4ccccc4CC(=O)O)c3c2)c1` [Compound 146d, 2-(2-((5-(3-(aminomethyl)phenyl)-7-((cyclopentylmethyl)amino)benzofuran-3-yl)methoxy)phenyl)acetic acid] reads below 1000 nM; that for `NCc1cccc(-c2cc(CN3CCC[C@H]3C(F)(F)F)c3occ(COc4ccccc4CC(=O)O)c3c2)c1` [Compound 178f, (S)-2-(2-((5-(3-(aminomethyl)phenyl)-7-((2-(trifluoromethyl)pyrrolidin-1-yl)methyl)benzofuran-3-yl)methoxy)phenyl)acetic acid], below 1000 nM. As for `CC(C)n1nc(COc2ccccc2CC(=O)O)c2cc(-c3cccc([C@H](N)CO)c3)ccc21` [Compound 267b, (S)-2-(2-((5-(3-(1-amino-2-hydroxyethyl)phenyl)-1-isopropyl-1H-indazol-3-yl)methoxy)phenyl)acetic acid], the figure is below 1000 nM. The result for `NCc1cccc(-c2cc3c(COc4ccccc4CC(=O)O)coc3c3ccoc23)c1F` [Compound 287b, 2-(2-((5-(3-(aminomethyl)-2-fluorophenyl)benzo[1,2-b:3,4-b′]difuran-3-yl)methoxy)phenyl)acetic acid] reads below 1000 nM; that for `CC(C)n1nc(COc2ccccc2CC(=O)O)c2cc(-c3cccc(CN)c3F)ccc21` [Compound 310b, 2-(2-((5-(3-(aminomethyl)-2-fluorophenyl)-1-isopropyl-1H-indazol-3-yl)methoxy)phenyl)acetic acid], below 1000 nM; that for `NCc1nccc(-c2ccc3occ(COc4ccccc4CC(=O)O)c3c2)c1F` [Compound 50d, 2-(2-((5-(2-(aminomethyl)-3-fluoropyridin-4-yl)benzofuran-3-yl)methoxy)phenyl)acetic acid], below 1000 nM. Take `CC(C)(C)OC(=O)c1oc2ccc(-c3cccc(CN)c3)cc2c1COc1ccccc1CC(=O)O` [Compound 86b, 2-(2-((5-(3-(aminomethyl)phenyl)-2-(tert-butoxycarbonyl)benzofuran-3-yl)methoxy)phenyl)acetic acid]: the IC50 was below 1000 nM. `CC(C)n1nc(COc2ccccc2CC(=O)O)c2cc(-c3cccc(CN)c3)ccc21` [Compound 182e, 2-(2-((5-(3-(aminomethyl)phenyl)-1-isopropyl-1H-indazol-3-yl)methoxy)phenyl)acetic acid]: the half-inhibitory concentration (IC50) is below 1000 nM.

Consider `CN1CCN(Cc2ccc(-c3cc(-c4cccc(CN)c4)cc4c(COc5ccccc5CC(=O)O)coc34)cc2)CC1` [Compound 116d, 2-(2-((5-(3-(aminomethyl)phenyl)-7-(4-((4-methylpiperazin-1-yl)methyl)phenyl)benzofuran-3-yl)methoxy)phenyl)acetic acid], for which the 50% inhibitory concentration (IC50) is below 1000 nM.

`NCc1cc(-c2ccc3occ(COc4ccccc4CC(=O)O)c3c2)ccn1` [Compound 53b, 2-(2-((5-(2-(aminomethyl)pyridin-4-yl)benzofuran-3-yl)methoxy)phenyl)acetic acid]: the IC50 was below 1000 nM. The result for `NCc1cccc(-c2cc(C(O)C(F)(F)F)c3occ(COc4ccccc4CC(=O)O)c3c2)c1` (stereo not drawn) [Compound 257h, 2-(2-((5-(3-(aminomethyl)phenyl)-7-(2,2,2-trifluoro-1-hydroxyethyl)benzofuran-3-yl)methoxy)phenyl)acetic acid] reads below 1000 nM; that for `NCc1cccc(-c2cc(OCc3ccncc3)c3occ(COc4ccccc4CC(=O)O)c3c2)c1` [Compound 166f, 2-(2-((5-(3-(aminomethyl)phenyl)-7-(pyridin-4-ylmethoxy)benzofuran-3-yl)methoxy)phenyl)acetic acid], below 1000 nM; that for `NCc1cccc(-c2cc(N)c3oc(COc4ccccc4CC(=O)O)cc3c2)c1` [Compound 235g, 2-(2-((7-amino-5-(3-(aminomethyl)phenyl)benzofuran-2-yl)methoxy)phenyl)acetic acid], above 10000 nM. As for `NCc1cccc(-c2cccc3cc(COc4ccccc4CC(=O)O)ccc23)c1` [Compound 41d, 2-(2-((5-(3-(aminomethyl)phenyl)naphthalen-2-yl)methoxy)phenyl)acetic acid], the figure is above 10000 nM; as for `COc1ccc(CC(=O)O)c(OCc2c(C)oc3c(NCC4CC4)cc(-c4cccc(CN)c4)cc23)c1` [Compound 274c, 2-(2-((5-(3-(aminomethyl)phenyl)-7-((cyclopropylmethyl)amino)-2-methylbenzofuran-3-yl)methoxy)-4-methoxyphenyl)acetic acid], below 1000 nM; as for `CCOC(=O)Cc1ccccc1OCc1cc(-c2cccc(CN)c2)c2oc(COc3ccccc3CC(=O)O)cc2c1` [Compound 22e, 2-(2-((7-(3-(aminomethyl)phenyl)-5-((2-(2-ethoxy-2-oxoethyl)phenoxy)methyl)benzofuran-2-yl)methoxy)phenyl)acetic acid], below 1000 nM.

For the compound `NCc1cccc(-c2cc(-c3cc4ccccc4[nH]3)c3occ(COc4ccccc4CC(=O)O)c3c2)c1` [Compound 137c, 2-(2-((5-(3-(aminomethyl)phenyl)-7-(1H-indol-2-yl)benzofuran-3-yl)methoxy)phenyl)acetic acid], the IC50 was below 1000 nM.

For the compound `NCc1cccc(-c2ccc3oc(-c4ccc(F)cc4)c(COc4ccccc4CC(=O)O)c3c2)c1` [Compound 167e, 2-(2-((5-(3-(aminomethyl)phenyl)-2-(4-fluorophenyl)benzofuran-3-yl)methoxy)phenyl)acetic acid], the IC50 was below 1000 nM. As for `C[C@H](N)c1cccc(-c2ccc3occ(COc4ccccc4CC(=O)O)c3c2)c1` [Compound 54c, (S)-2-(2-((5-(3-(1-aminoethyl)phenyl)benzofuran-3-yl)methoxy)phenyl)acetic acid], the figure is below 1000 nM; as for `CCOC(=O)Cc1ccc(OC)cc1OCc1nn(C)c2ccc(-c3ccnc(CN)c3)cc12` [Compound 315b, ethyl 2-(2-((5-(2-(aminomethyl)pyridin-4-yl)-1-methyl-1H-indazol-3-yl)methoxy)-4-methoxyphenyl)acetate], below 1000 nM. Turning to `CCc1ccc(CC(=O)O)c(OCc2coc3ccc(-c4cccc(CN)c4)cc23)c1` [Compound 49b, 2-(2-((5-(3-(aminomethyl)phenyl)benzofuran-3-yl)methoxy)-4-ethylphenyl)acetic acid], the IC50 was below 1000 nM. Take `NCc1cccc(-c2cc(/C=C/C3CC3)c3occ(COc4ccccc4CC(=O)O)c3c2)c1` [Compound 132d, (E)-2-(2-((5-(3-(aminomethyl)phenyl)-7-(2-cyclopropylvinyl)benzofuran-3-yl)methoxy)phenyl)acetic acid]: the IC50 is below 1000 nM. Regarding `NCc1cccc(-c2cc(CN3CCC3)c3occ(COc4ccccc4CC(=O)O)c3c2)c1` [Compound 207d, 2-(2-((5-(3-(aminomethyl)phenyl)-7-(azetidin-1-ylmethyl)benzofuran-3-yl)methoxy)phenyl)acetic acid], the IC50 is below 1000 nM. As for `COc1ccc(CC(=O)O)c(OCc2c(C(F)F)oc3c(NCC4CC4)cc(-c4cccc(CN)c4)cc23)c1` [Compound 236c, 2-(2-((5-(3-(aminomethyl)phenyl)-7-((cyclopropylmethyl)amino)-2-(difluoromethyl)benzofuran-3-yl)methoxy)-4-methoxyphenyl)acetic acid], the figure is below 1000 nM.
